Measured values: PMC3401907, “Cellular Uptakes, Biostabilities and Anti-miR-210 Activities of Chiral Arginine-PNAs in Leukaemic K562 Cells” (Chembiochem, 2012)

Experiments:
[1] = test system: γ-globin gene expression; experiment: γ-globin gene expression by RT-qPCR; assay type: cell-based, human; conditions: mithramycin-treated (15 nM) K562 cells, PNA 2 μM single administration, 72 h, n=3
Description: The strong inhibition of miR-210 by PNA2 and PNA4 might thus result in appreciable reduction of γ-globin gene expression.
Figure 6 A) Effects of pept-1, PNA1, PNA2 and PNA4 molecules (each 2 μM) on γ-globin content in K562 cell cultures for 72 h with MTH (15 nM). Data are reported as arbitrary units relative to cells treated with pept-1 and MTH (average±SD, n=3, *: p<0.05, **: p<0.01). B), C) Effects of treatment (72 h) with pept-1, PNA1, PNA2 and PNA4 molecules on K562 cells induced to erythroid differentiation by MTH (15 nM): B) summary of three independent experiments, C) a representative experiment showing staining of the cells with benzidine.
The nucleotide sequences used for real-time qPCR analysis of γ-globin mRNAs were γ-globin forward primer (5′-TGGCAA GAAGGT GCTGAC TTC-3′), γ-globin reverse primer (5′-TCACTC AGCTGG GCAAAG G-3′) and γ-globin probe (5′-FAM-TGGGAG ATGCCA TAAAGC ACCTGG-TAMRA-3′).[25] The relative expression was calculated by the comparative cycle threshold method with endogenous control human 18S rRNA as reference genes.[25]

[2] = test system: K562 cells; conditions: cited from earlier work
Description: In order to determine the distributions of PNAs within target cells, analysis was performed with a fluorescence microscope. […] Low uptake was also found by fluorescence microscopy with PNA1.[25]

[3] = test system: RNA1 (target region of miR-210); experiment: Melting temperature (Tm) of PNA:RNA duplexes, full-match RNA; assay type: binding; conditions: UV absorbance at 260 nm, strand concentration 5 μM; for Tm, RNA1 in water: PBS buffer pH 7, no urea; for Tm, RNA1 in urea (5 M): PBS buffer pH 7 with urea 5 M
Description: (§1) Measurements of Tm values: The Tm values were determined with a Lambda Bio 20 spectrophotometer and a Peltier PTP6 temperature programmer. Thermal denaturation profiles were measured by monitoring the absorbance at 260 nm from 18 to 90 °C with a heating rate of 1 °C min^−1 and recording every 0.1 °C. […]

[4] = test system: miR-210; conditions: cited from earlier work; for anti-miR activity: K562 cells, previously demonstrated
Excerpt: (§2) The first step necessary to achieve anti-miR activity in cells is effective cellular uptake.

[5] = test system: RNA2 (mismatched RNA, G→U); experiment: Melting temperature (Tm) of PNA:RNA duplexes, single-mismatch RNA; assay type: binding; conditions: UV absorbance at 260 nm, PBS buffer pH 7 with urea 5 M, strand concentration 5 μM
Excerpt: (§3) Sequence selectivity is a very important issue in view of the use of PNAs in cellular systems, because partial hybridisation might occur with other unrelated miRNAs or, most importantly, with mRNA targets. We analysed the sequence selectivities of our PNAs with stricter models (DNA2 and RNA2) involving single base mismatches (G→T or G→U) located in the middle of the target sequences. In each case the sequence selectivity was confirmed by significant lowering of the melting temperature. The ranges of ΔTm due to the presence of these single mismatches were 8–21 °C for DNA, with the maximum drop in the case of PNA4 and the minimum observed in that of PNA6. For the latter it should be considered that the mismatch was facing the last chiral monomer, preventing the cooperative effect observed in the case of 2D-modifed highly constrained PNA.[22]
(§4) Measurements of Tm values: The Tm values were determined with a Lambda Bio 20 spectrophotometer and a Peltier PTP6 temperature programmer. Thermal denaturation profiles were measured by monitoring the absorbance at 260 nm from 18 to 90 °C with a heating rate of 1 °C min^−1 and recording every 0.1 °C. Measurement conditions: [PNA]=[DNA] or [RNA]=5 μM in PBS buffer [pH 7.0, NaCl (100 mM), NaH2PO4⋅H2O (10 mM), EDTA (0.1 mM)] with urea (5 M).

[6] = test system: DNA2 (mismatched DNA, G→T); experiment: Melting temperature (Tm) of PNA:DNA duplexes, single-mismatch DNA; assay type: binding; conditions: single mismatch; UV absorbance at 260 nm, PBS buffer pH 7 with urea 5 M, strand concentration 5 μM
Excerpt: as §3, §4

[7] = test system: DNA1 (full-match antiparallel DNA); experiment: Melting temperature (Tm) of PNA:DNA duplexes, full-match DNA; assay type: binding; conditions: UV absorbance at 260 nm, strand concentration 5 μM; for Tm, DNA1 in urea (5 M): PBS buffer pH 7 (NaCl 100 mM, NaH2PO4 10 mM, EDTA 0.1 mM) with urea 5 M; for Tm, DNA1 in water: PBS buffer pH 7, no urea, 18 to 90 °C at 1 °C/min
Description: as §1

[8] = test system: miR-210; experiment: miR-210 content by RT-qPCR analysis; assay type: cell-based, human; conditions: K562 cells, 24 h; for inhibition of miR-210 bioavailability (miR-210 content): PNA 2 μM, Figure 5 A and B, relative to pept-1
Description: K562 cells were treated with 15 nM mithramycin in the presence of a PNA (2 μM), and after 24 h RNA was isolated and miR-210 was assayed by RT-qPCR analysis. This type of test has been used to evaluate miR content in many studies because it allows the free-miR content to be evaluated. […] Figure 5 A and B reports the obtained data, showing that inhibition of miR bioavailability was induced both with the modified PNA and with the peptide-conjugated one, whereas in the case of PNA1 it was unchanged. […] This might be related to inhibition of pre-miR maturation or to unavailability of the miR to the qRT-PCR analysis due to strong complexation with the PNA. In either case the bioavailability of the miR for targeting other genes should be reduced.
Transfection procedures: Anti-miR-210 PNAs were directly added to the cellular medium to reach the indicated final concentrations. K562 cells were cultured in 24-well plates starting from the initial density of 30 000 cells per mL. MTH was administrated together with anti-miR PNAs.
RNA extraction: Cells were isolated by centrifugation at 1500 rpm for 10 min at 4 °C, washed in PBS and lysed in Tri-reagent (Sigma–Aldrich) according to the manufacturer's instructions. The isolated RNA was washed once with cold ethanol (75 %), dried and dissolved in ultrapure nuclease-free water.
Real-time quantitative PCR: For microRNA quantification with real-time RT-PCR reagents, the primers and probes were obtained from Applied Biosystems. Reverse transcriptase (RT) reactions were performed with a TaqMan MicroRNA Reverse Transcription Kit (Applied Biosystems) for hsa-miR-210, hsa-miR-10a, hsa-miR-93, hsa-miR-99b, hsa-miR-126, hsa-miR-149, hsa-miR-424, hsa-miR-483-5p, hsa-miR-625, hsa-let-7c and the iQTM5 real-time PCR System Instrument (Bio-Rad). Relative expression was calculated by the comparative cycle threshold method and U6 microRNA was used as reference gene to normalise all RNA samples, because it is constant in the assayed samples by miR-profiling and quantitative RT-PCR analysis as previously reported.[25]

[9] = test system: K562 cells; conditions: previously demonstrated; cited from earlier work
Excerpt: as §2

[10] = test system: K562 cells; experiment: Mithramycin-induced erythroid differentiation (benzidine-positive cells); assay type: cell-based, human; conditions: MTH 15 nM, PNA 2 μM, benzidine-positive cells after 5 days of induction, three independent experiments
Description: In order to evaluate effects on mithramycin-induced cellular differentiation, K562 cells were treated with MTH in the presence of pept-1, PNA1, PNA2 and PNA4 (each 2 μM). The proportions of benzidine-positive cells were determined after 5 days of induction.
Human cell lines and culture conditions: Human leukaemia K562 cells were cultured under humidified CO2 (5 %)/air in RPMI 1640 medium (Sigma) supplemented with foetal bovine serum (FBS, 10 %, Analitical de Mori, Milan, Italy), penicillin (50 units mL^−1) and streptomycin (50 μg mL^−1).[26] Mithramycin (MTH) was from Sigma. Stock solutions of MTH (100 μM) were stored at −20 °C in the dark and diluted immediately before use. Treatment of K562 cells with MTH was carried out by addition of the appropriate drug concentrations at the beginning of the cultures (cells were seeded at 30 000 mL^−1). The medium was not changed during the induction period. To determine antiproliferative activity, cell growth was studied by determining the cell number per mL with a Z1 Coulter Counter (Coulter Electronics, Hialeah, FL, USA). Erythroid differentiated K562 cells containing haemoglobin were detected by specific reaction with a benzidine/hydrogen peroxide solution as reported elsewhere.[26] The final concentration of benzidine was 0.2 % in glacial acetic acid (5 M) and H2O2 (10 %).

| Substance | effect on γ-globin gene expression [1] | uptake by fluorescence microscopy [2] | Tm, RNA1 in water [3] | Tm, RNA1 in urea (5 M) [3] | anti-miR activity [4] | Tm, RNA2 in urea (5 M) [5] | Tm, DNA2 in urea (5 M) [6] | Tm, DNA1 in urea (5 M) [7] | Tm, DNA1 in water [7] | inhibition of miR-210 bioavailability (miR-210 content) [8] | selectivity of miR-210 inhibition versus other miRs ([4]; previously found) | internalisation within K562 cells [9] | effect on MTH-induced erythroid differentiation [10] | miR-210 inhibition upon treatment with mithramycin ([8]; PNA 2 μM with MTH 15 nM, relative to pept-1 and MTH) |
| --- | --- | --- | --- | --- | --- | --- | --- | --- | --- | --- | --- | --- | --- | --- |
| H-CCGCTGTCACACGCACAG-NH2 [PNA1, unmodified achiral "naked" 18-mer PNA targeted against miR-210, reference compound] | did not show appreciable effects | Low uptake | 88 °C | 77 °C | no activity | 62 °C | 58 °C | 70 °C | 85 °C | unchanged |  |  |  |  |
| H-R8CCGCTGTCACACGCACAG-NH2 [PNA2, 18-mer anti-miR-210 PNA conjugated with octaarginine (R8) peptide, reference compound] | inhibited γ-globin gene expression |  | >90 °C | 88 °C | pronounced anti-miR activity | 73 °C | 68 °C | 80 °C | >90 °C | Stronger inhibition | inhibit miR-210 selectively | efficiently internalised | able to inhibit erythroid differentiation | best results |
